One molecule from US6228880A, “4-amino-(ethylamino)-oxindole dopamine autoreceptor agonists” (American Home Products Corp, priority 1999, dated 2001) can be followed below.

The structures appear in SMILES notation. Where a name gives a salt, the structure may show the parent alone.

In test [1] the target is T1, dopamine D2 receptor (Rattus norvegicus, UniProt P61169).
T1 construct: from tissue; host or cells: limbic brain tissue homogenate
Description: Affinity for the dopamine D2 receptor, 3H-spiroperidol binding in limbic brain tissue homogenate (D2 Spiper). To be noted: 3H-spiroperidol (Spiper.); homogenized limbic brain tissue. How it is done:
High affinity for the dopamine D2 receptor was established by the standard experimental test procedure of Fields, et al., Brain Res., 136:578 (1977) and Yamamura et al., eds., Neurotransmitter Receptor Binding, Raven Press, N.Y. (1978). Homogenized limbic brain tissue was incubated with ^3 H-spiroperidol (Spiper.) and the appropriate concentrations of test compound, filtered, washed and shaken with Hydrofluor scintillation cocktail (available from National Diagnostics) and counted in a Packard 460 CD scintillation counter.

The target in test [2] is T1, dopamine D2 receptor. Description: Ratio of D2 Spiper to D2 Quin. (LowAg/HighAg, intrinsic activity). The class given is binding. To be noted: D2 Spiper IC50 / D2 Quin. IC50 (LowAg/HighAg). The source says: Efforts to induce antipsychotic activity with dopamine autoreceptor agonists have been successful (e.g., see Dorsini et al., Adv. Biochem. Psychopharmacol., 16:645-648 (1977); Tamminga et al., Science, 200:567-568 (1975); and Tamminga et al., Psychiatry 398-402 (1986). A method for determining intrinsic activity at the dopamine D2 receptor was recently reported by Lahti et al., Mol. Pharm. 42:432-438 (1993). Intrinsic activity is predicted using the ratio of the "low-affinity agonist" (i.e., LowAg) state of the receptor and the "high-affinity agonist" (i.e., HighAg) state of the receptor, i.e. LowAg/HighAg. These ratios correlate with the agonist, partial agonist, and antagonist activities of a given compound. Such activities characterize the ability of a compound to elicit an antipsychotic effect.
The affinity for the dopamine autoreceptor was established by the standard experimental test procedure of Seemen and Schaus, European Journal of Pharmacology, 203:105-109 (1991). According to this procedure, homogenized rat striatal brain tissue was incubated with the appropriate concentrations of test compound, filtered and washed and counted in a Betaplate scintillation counter. […]

Test [3] deals with T2, dopamine autoreceptor (D2) (Rattus norvegicus, UniProt P61169).
T2 construct: from tissue; host or cells: rat striatum homogenate
Description: Affinity for the dopamine autoreceptor, rat striatal tissue homogenate (D2 Quin.). The class given is binding. The conditions noted are these: homogenized rat striatal brain tissue. How it is done:
The affinity for the dopamine autoreceptor was established by the standard experimental test procedure of Seemen and Schaus, European Journal of Pharmacology, 203:105-109 (1991). According to this procedure, homogenized rat striatal brain tissue was incubated with the appropriate concentrations of test compound, filtered and washed and counted in a Betaplate scintillation counter.

T1 sequence (P61169 whole entry): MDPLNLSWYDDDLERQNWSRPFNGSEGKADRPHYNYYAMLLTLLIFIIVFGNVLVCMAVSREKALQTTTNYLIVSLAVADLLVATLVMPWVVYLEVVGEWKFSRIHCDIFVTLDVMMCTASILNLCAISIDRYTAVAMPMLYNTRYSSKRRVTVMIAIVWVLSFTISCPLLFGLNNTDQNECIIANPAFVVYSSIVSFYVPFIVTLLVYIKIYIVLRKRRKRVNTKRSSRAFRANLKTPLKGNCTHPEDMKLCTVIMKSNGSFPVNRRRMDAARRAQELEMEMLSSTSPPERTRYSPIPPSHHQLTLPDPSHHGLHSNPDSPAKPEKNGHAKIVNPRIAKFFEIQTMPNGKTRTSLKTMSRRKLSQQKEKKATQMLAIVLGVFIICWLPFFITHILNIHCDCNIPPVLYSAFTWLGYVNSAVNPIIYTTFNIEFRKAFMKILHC
T2 sequence (P61169 whole entry): as above

`O=C1Cc2c(NCCNCc3ccccc3)cccc2N1` [Example 1, 4-(2-Benzylamino-ethylamino)-1,3-dihydro-indol-2-one.dihydrochloride.0.1 hydrate]: the values for the IC50 (at dopamine D2 receptor [1]; in test [3]) were 892 nM and 13.2 nM, respectively. Further, the Ratio at dopamine D2 receptor [2] turned out to be 67.7.
